Measurements published in article PMC3527664, “Kinetic properties and small-molecule inhibition of human myosin-6” (Febs Letters, 2012).

Tests used:
human myosin-6 (M6-2R) [1] = molecular target: T1, human myosin-6 (M6-2R) (Homo sapiens, UniProt Q9UM54); assay: stopped-flow, ATP binding to pyrene-acto•M6-2R; steady-state ATPase turnover; parameters: gene MYO6; M6-2R (human myosin-6 motor domain, amino acids 1-816, fused to artificial lever); with F-actin (pyrene-actin)
Source text: stopped-flow, ATP binding to pyrene-acto•M6-2R; steady-state ATPase turnover on human myosin-6 (M6-2R) | ATP binding to the complex formed by pyrene–actin and M6-2R show a linear dependence on [ATP]

human myosin-6 (M6-2R) [2] = molecular target: T1, human myosin-6 (M6-2R); assay: actin-activated ATPase assay (NADH-coupled), biphasic inhibition; binding also by MST (data not shown); assay type: biochemical; parameters: gene MYO6; amino acids 1-816 of human myosin-6 motor domain fused to an artificial lever derived from Dictyostelium discoideum α-actinin (M6-2R); with F-actin (rabbit skeletal muscle); calmodulin associated with insert-2
human myosin-6 (M6-2R) [3] = molecular target: T1, human myosin-6 (M6-2R); assay: stopped-flow fluorescence, second-order binding rate constant K1k+[…]; parameters: gene MYO6; M6-2R (human myosin-6 motor domain, amino acids 1-816, fused to artificial lever)
human myosin-6 = molecular target: T2, human myosin-6 (Homo sapiens, UniProt Q9UM54); assay: myosin-6 ATPase assay; MST affinity ranking; assay type: biochemical
T2 construct: gene MYO6; human myosin-6 motor domain construct M6-2R (amino acids 1-816)
T2 sequence (Q9UM54 1-816): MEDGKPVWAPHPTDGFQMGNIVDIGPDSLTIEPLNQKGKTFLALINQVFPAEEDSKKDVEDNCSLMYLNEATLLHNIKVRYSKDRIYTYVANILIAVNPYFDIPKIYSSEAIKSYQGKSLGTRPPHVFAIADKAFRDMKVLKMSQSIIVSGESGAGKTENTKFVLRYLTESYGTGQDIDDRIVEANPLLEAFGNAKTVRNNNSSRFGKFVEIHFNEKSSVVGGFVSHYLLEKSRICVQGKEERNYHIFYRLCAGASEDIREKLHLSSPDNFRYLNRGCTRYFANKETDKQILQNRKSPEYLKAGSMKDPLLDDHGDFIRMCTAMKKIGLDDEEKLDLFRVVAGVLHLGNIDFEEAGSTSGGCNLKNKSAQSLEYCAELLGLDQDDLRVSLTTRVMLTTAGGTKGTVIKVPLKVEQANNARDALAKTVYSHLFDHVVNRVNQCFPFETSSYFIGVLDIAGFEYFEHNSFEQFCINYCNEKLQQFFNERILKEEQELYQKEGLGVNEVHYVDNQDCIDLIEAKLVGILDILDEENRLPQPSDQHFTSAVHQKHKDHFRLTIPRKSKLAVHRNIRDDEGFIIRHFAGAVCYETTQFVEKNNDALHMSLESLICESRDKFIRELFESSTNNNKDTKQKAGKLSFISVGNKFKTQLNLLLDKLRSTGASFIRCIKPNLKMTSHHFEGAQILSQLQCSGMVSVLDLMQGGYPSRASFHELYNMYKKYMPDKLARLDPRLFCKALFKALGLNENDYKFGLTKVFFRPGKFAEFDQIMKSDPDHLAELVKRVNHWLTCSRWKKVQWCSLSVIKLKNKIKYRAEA

human myosin-6 (M6-2R) [4] = molecular target: T1, human myosin-6 (M6-2R); assay: stopped-flow fluorescence, KD = k−D/k+D; assay type: binding; parameters: gene MYO6; M6-2R (human myosin-6 motor domain, amino acids 1-816, fused to artificial lever); conditions: read-out: Hs Myosin-6 ^a^, ^b

T1 sequence (Q9UM54 1-816): as above

Molecule `Nc1ncnc2c1ncn2[C@@H]1O[C@H](COP(=O)(O)OP(=O)(O)OP(=O)(O)O)[C@@H](O)[C@H]1O` [ATP] has a kon (human myosin-6 (M6-2R) [1]) of 11000 ± 300 M⁻¹ s⁻¹.
`Oc1c(I)cc(I)cc1I` [TIP, 2,4,6-triiodophenol] was tested, and the Ki (human myosin-6 (M6-2R) [2]) was 800 ± 500 nM.
Work on `CNc1ccccc1C(=O)O[C@H]1C[C@H](n2cnc3c(N)ncnc32)O[C@@H]1COP(=O)(O)OP(=O)(O)OP(=O)(O)O` [d-mantATP, 2′-deoxy-3′-O-(N′-methylanthraniloyl)adenosine-5′-O-triphosphate] yielded a kon (human myosin-6 (M6-2R) [3]) of 50000 ± 10000 M⁻¹ s⁻¹.
For `Oc1c(Br)c(Br)c(Br)c(Br)c1Br` [pentabromophenol], the “myosin-6 ATPase assay; MST affinity ranking” value (human myosin-6) was “Pentabromophenol and TIP inhibit myosin-6 ATPase activity in the low micromolar range”.
Molecule mantADP has a Kd (human myosin-6 (M6-2R) [4]) of 2000 ± 150 nM.
